The results in this text go back to ChEMBL document CHEMBL1697781, “Assessment of the health effects of chemicals in humans: II. Construction of an adverse effects database for QSAR modeling” (Curr Drug Discov Technol, 2004).

Conditions in all cases: human; call rule not given here
The subject of data set [1] is Hepatotoxicity. Put plainly: FDA HLAED, liver enzyme composite activity.
In data set [2] the test system is Hepatotoxicity. Briefly: FDA HLAED, alkaline phosphatase increase.
Data set [3] has as its system Hepatotoxicity. Put plainly: FDA HLAED, serum glutamic oxaloacetic transaminase (SGOT) increase.
Data set [4] concerns Hepatotoxicity. Put plainly: FDA HLAED, serum glutamic pyruvic transaminase (SGPT) increase.
Data set [5] deals with Hepatotoxicity. Put plainly: FDA HLAED, lactate dehydrogenase (LDH) increase.
Data set [6] relates to Hepatotoxicity. Put plainly: FDA HLAED, gamma-glutamyl transferase (GGT) increase.
Throughout, for GGT Increase - Index Value: reference of the scale not given here.
Throughout, for LDH Increase - Index Value: reference of the scale not given here.

On to `CC(C)c1ccc2oc3nc(N)c(C(=O)O)cc3c(=O)c2c1` [AMLEXANOX], for which, in data set [1], the “Composite Activity - Active” value amounted to 0, the “Composite Activity - Marginal” value was found to be 0 and the “Composite Activity - Score” value is recorded as “Inactive”. For the same compound, in data set [2], the “Alkaline Phosphatase Increase - Activity Score” value was “Inactive”, the “Alkaline Phosphatase Increase - Index Value” worked out at 0 and the “Alkaline Phosphatase Increase - Number of Reports” value is recorded as less than 4. In data set [3], the “SGOT Increase - Activity Score” value is given as “Inactive”, the “SGOT Increase - Index Value” is listed as 0 and the “SGOT Increase - Number of Reports” value was less than 4. In data set [4], the “SGPT Increase - Activity Score” value is “Inactive”, the “SGPT Increase - Index Value” is 0 and the “SGPT Increase - Number of Reports” value was less than 4. In data set [5], the “LDH Increase - Activity Score” value is recorded as “Inactive”, the “LDH Increase - Index Value” worked out at 0 and the “LDH Increase - Number of Reports” value is recorded as less than 4. In data set [6], the “GGT Increase - Activity Score” value is on record as “Inactive”, the “GGT Increase - Index Value” is given as 0 and the “GGT Increase - Number of Reports” value is listed as less than 4.
Consider `COc1cccc(C2(O)CCCCC2CN(C)C)c1` (stereo unspecified) [TRAMADOL], for which, in data set [1], the “Composite Activity - Active” value came out at 0, the “Composite Activity - Marginal” value is 0 and the “Composite Activity - Score” value was “Inactive”. For the same compound, in data set [2], the “Alkaline Phosphatase Increase - Activity Score” value is “Inactive”, the “Alkaline Phosphatase Increase - Index Value” is 0.1 and the “Alkaline Phosphatase Increase - Number of Reports” value is given as less than 4. In addition, in data set [3], the “SGOT Increase - Activity Score” value was “Inactive”, the “SGOT Increase - Index Value” is given as 0.5 and the “SGOT Increase - Number of Reports” value is recorded as “>= 4”. Besides, in data set [4], the “SGPT Increase - Activity Score” value is “Inactive”, the “SGPT Increase - Index Value” worked out at 0.8 and the “SGPT Increase - Number of Reports” value is recorded as “>= 4”. Moreover, in data set [5], the “LDH Increase - Activity Score” value is recorded as “Inactive”, the “LDH Increase - Index Value” was determined as 0.6 and the “LDH Increase - Number of Reports” value is “>= 4”. Besides, in data set [6], the “GGT Increase - Activity Score” value is on record as “Inactive”, the “GGT Increase - Index Value” stood at 0.2 and the “GGT Increase - Number of Reports” value is reported as less than 4.
On to `CO/N=C(/C(=O)N[C@@H]1C(=O)N2C(C(=O)OC(C)OC(=O)C(C)(C)OC)=C(COC(N)=O)CS[C@H]12)c1ccco1` (stereo partly specified) [CEFUROXIME PIVOXETIL], for which, in data set [1], the “Composite Activity - Active” value was 0, the “Composite Activity - Marginal” value came out at 0 and the “Composite Activity - Score” value is listed as “Inactive”. Besides, in data set [2], the “Alkaline Phosphatase Increase - Activity Score” value is on record as “Inactive”, the “Alkaline Phosphatase Increase - Index Value” is reported as 0 and the “Alkaline Phosphatase Increase - Number of Reports” value is less than 4. In data set [3], the “SGOT Increase - Activity Score” value is listed as “Inactive”, the “SGOT Increase - Index Value” is 0 and the “SGOT Increase - Number of Reports” value is less than 4. In data set [4], the “SGPT Increase - Activity Score” value was “Inactive”, the “SGPT Increase - Index Value” was determined as 0 and the “SGPT Increase - Number of Reports” value is recorded as less than 4. In data set [5], the “LDH Increase - Activity Score” value is recorded as “Inactive”, the “LDH Increase - Index Value” stood at 0 and the “LDH Increase - Number of Reports” value is less than 4. Also, in data set [6], the “GGT Increase - Activity Score” value is given as “Inactive”, the “GGT Increase - Index Value” is 0 and the “GGT Increase - Number of Reports” value is less than 4.
For the compound `N=C(N)N/N=C/c1c(Cl)cccc1Cl` [GUANABENZ], in data set [1], the “Composite Activity - Active” value came to 0, the “Composite Activity - Marginal” value came out at 0 and the “Composite Activity - Score” value is listed as “Inactive”. Also, in data set [2], the “Alkaline Phosphatase Increase - Activity Score” value was “Inactive”, the “Alkaline Phosphatase Increase - Index Value” was 0 and the “Alkaline Phosphatase Increase - Number of Reports” value is listed as less than 4. Further, in data set [3], the “SGOT Increase - Activity Score” value was “Inactive”, the “SGOT Increase - Index Value” was 0.9 and the “SGOT Increase - Number of Reports” value is reported as less than 4. In data set [4], the “SGPT Increase - Activity Score” value was “Inactive”, the “SGPT Increase - Index Value” was 0.6 and the “SGPT Increase - Number of Reports” value is given as less than 4. In addition, in data set [5], the “LDH Increase - Activity Score” value is on record as “Inactive”, the “LDH Increase - Index Value” was 0.3 and the “LDH Increase - Number of Reports” value was less than 4. Also, in data set [6], the “GGT Increase - Activity Score” value is on record as “Inactive”, the “GGT Increase - Index Value” amounted to 0 and the “GGT Increase - Number of Reports” value is reported as less than 4.
Turning to `Cc1nc2n(c(=O)c1CCN1CCC(c3noc4cc(F)ccc34)CC1)CCCC2` [RISPERIDONE], in data set [1], the “Composite Activity - Active” value is recorded as 2, the “Composite Activity - Marginal” value was 0 and the “Composite Activity - Score” value is reported as “Active”. Besides, in data set [2], the “Alkaline Phosphatase Increase - Activity Score” value was “Inactive”, the “Alkaline Phosphatase Increase - Index Value” came out at 1.6 and the “Alkaline Phosphatase Increase - Number of Reports” value is listed as “>= 4”. In data set [3], the “SGOT Increase - Activity Score” value is reported as “Active”, the “SGOT Increase - Index Value” is listed as 4.8 and the “SGOT Increase - Number of Reports” value is “>= 4”. Also, in data set [4], the “SGPT Increase - Activity Score” value is recorded as “Active”, the “SGPT Increase - Index Value” came to 4.9 and the “SGPT Increase - Number of Reports” value is listed as “>= 4”. For the same compound, in data set [5], the “LDH Increase - Activity Score” value is listed as “Inactive”, the “LDH Increase - Index Value” turned out to be 0.9 and the “LDH Increase - Number of Reports” value is “>= 4”. Moreover, in data set [6], the “GGT Increase - Activity Score” value was “Inactive”, the “GGT Increase - Index Value” worked out at 1.6 and the “GGT Increase - Number of Reports” value is on record as “>= 4”.
With `CC1Cc2ccccc2N1NC(=O)c1ccc(Cl)c(S(N)(=O)=O)c1` (stereo unspecified) [INDAPAMIDE], in data set [1], the “Composite Activity - Active” value is recorded as 0, the “Composite Activity - Marginal” value amounted to 0 and the “Composite Activity - Score” value was “Inactive”. Moreover, in data set [2], the “Alkaline Phosphatase Increase - Activity Score” value is on record as “Inactive”, the “Alkaline Phosphatase Increase - Index Value” was determined as 0.5 and the “Alkaline Phosphatase Increase - Number of Reports” value was less than 4. In data set [3], the “SGOT Increase - Activity Score” value is given as “Inactive”, the “SGOT Increase - Index Value” is given as 1 and the “SGOT Increase - Number of Reports” value is reported as less than 4. Besides, in data set [4], the “SGPT Increase - Activity Score” value is “Inactive”, the “SGPT Increase - Index Value” is on record as 0.5 and the “SGPT Increase - Number of Reports” value is less than 4. In addition, in data set [5], the “LDH Increase - Activity Score” value is reported as “Inactive”, the “LDH Increase - Index Value” came to 0.5 and the “LDH Increase - Number of Reports” value was less than 4. Also, in data set [6], the “GGT Increase - Activity Score” value is “Inactive”, the “GGT Increase - Index Value” stood at 0 and the “GGT Increase - Number of Reports” value is given as less than 4.
As for `CC(C)[C@H](N)C(=O)OCCOCn1cnc2c(=O)[nH]c(N)nc21` [VALACYCLOVIR], in data set [1], the “Composite Activity - Active” value was found to be 0, the “Composite Activity - Marginal” value stood at 0 and the “Composite Activity - Score” value is listed as “Inactive”. For the same compound, in data set [2], the “Alkaline Phosphatase Increase - Activity Score” value is given as “Inactive”, the “Alkaline Phosphatase Increase - Index Value” is on record as “No Shipping Units” and the “Alkaline Phosphatase Increase - Number of Reports” value is listed as less than 4. In data set [3], the “SGOT Increase - Activity Score” value was “Inactive”, the “SGOT Increase - Index Value” is listed as “No Shipping Units” and the “SGOT Increase - Number of Reports” value is listed as less than 4. For the same compound, in data set [4], the “SGPT Increase - Activity Score” value is reported as “Inactive”, the “SGPT Increase - Index Value” is given as “No Shipping Units” and the “SGPT Increase - Number of Reports” value is given as less than 4. Besides, in data set [5], the “LDH Increase - Activity Score” value is given as “Inactive”, the “LDH Increase - Index Value” is given as 0 and the “LDH Increase - Number of Reports” value is reported as less than 4. Further, in data set [6], the “GGT Increase - Activity Score” value is given as “Inactive”, the “GGT Increase - Index Value” is listed as 0 and the “GGT Increase - Number of Reports” value was less than 4.
